Reference: patent US10934298B2, “Substituted pyrazolo[1,5-a]pyrimidines for the treatment of medical disorders” (BIAL—BioTech Investments, Inc., priority 2016, dated 2021)

Biological target: T1, glucocerebrosidase (Gcase) (Homo sapiens, UniProt P04062)
T1 construct: micellar solution containing 10 nM GCase and 100 nM saposin C
T1 sequence (P04062 40-536): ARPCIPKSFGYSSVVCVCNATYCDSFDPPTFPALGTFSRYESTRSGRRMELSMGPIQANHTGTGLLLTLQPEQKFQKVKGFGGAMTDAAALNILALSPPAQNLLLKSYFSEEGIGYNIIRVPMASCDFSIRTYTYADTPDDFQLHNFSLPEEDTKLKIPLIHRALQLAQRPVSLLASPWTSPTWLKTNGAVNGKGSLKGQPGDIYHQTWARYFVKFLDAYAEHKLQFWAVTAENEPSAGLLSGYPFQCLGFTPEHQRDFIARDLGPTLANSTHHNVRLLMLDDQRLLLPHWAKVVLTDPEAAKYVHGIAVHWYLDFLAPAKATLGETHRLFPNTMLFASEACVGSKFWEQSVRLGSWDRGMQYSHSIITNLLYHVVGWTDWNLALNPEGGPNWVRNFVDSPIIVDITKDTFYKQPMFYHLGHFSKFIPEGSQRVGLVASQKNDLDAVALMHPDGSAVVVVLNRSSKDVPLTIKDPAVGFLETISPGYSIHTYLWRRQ
Experiment: Glucocerebrosidase (Gcase) activation assay with 4-methylumbelliferyl-beta-D-glucopyranoside substrate, saposin C and phosphatidylserine/triton micelles, fluorescence readout
Type: biochemical
Description: The ability of exemplary compounds to activate glucocerebrosidase (Gcase) was measured.
A 484 μL aliquot of a 1.0 mg/mL solution of phosphatidylserine (PS) (Sigma P7769) in chloroform was evaporated under a stream of nitrogen for 1 hour. The lipid film was dissolved over 4 minutes of vigorous vortexing in 40 mL of 176 mM K2HPO4/50 mM citric acid (pH 4.7) containing 7.5 μL of triton X-100, resulting in a mixed micellar preparation with a composition of 0.32 mM triton and 0.37 mol % PS. 4-Methylumbelliferyl-beta-D-glucopyranoside (ACROS-337025000) was dissolved in the micellar solution to a final concentration of 2 mM for use as the reaction substrate.
Test compounds were diluted to the desired concentrations with dimethylsulfoxide (DMSO) from 10 mM stocks, and 0.41 μL of the DMSO compound mixture was added to 100 μL of micellar solution containing 10 nM GCase and 100 nM saposin C (Enzo ALX-201-262-C050). Pre-incubation was allowed to occur for 30 minutes at room temperature, after which the reaction was initiated by combining 25 μL of substrate solution with 25 μL of compound/GCase/saposin mixture. The reaction proceeded for 15 minutes at room temperature and was stopped by adding 150 μL of 1M glycine, pH 12.5. The endpoint of the reaction was monitored by measuring fluorescence intensity (excitation: 365 nm; emission: 440 nm) on a SpectraMax i3 instrument (Molecular Devices). Test compounds were screened at 1.0 and 0.1 μM final concentration, and subsequent 8-point dose response curves were obtained using 3-fold dilutions from a maximum final concentration of 5 μM.

| SMILES | Percent Gcase Activation, 0.1 μM Test Compound (0.1 μM test compound) | Percent Gcase Activation, 1 μM Test Compound (1 μM test compound) | Percent Gcase Activation, 0.1 μM Test Compound (test compound at 0.1 μM) | Percent Gcase Activation, 1 μM Test Compound (test compound at 1.0 μM) | further results |
| --- | --- | --- | --- | --- | --- |
| Cc1nsc(C)c1-c1cc(C)n2ncc(C(=O)N[C@H](C3CC3)C(F)(F)F)c2n1 [III-385] | * (less than 10% Gcase activation) | + (less than 30% Gcase activation) |  |  |  |
| Cc1cc(Cl)nc2c(C(=O)NC(C3CC3)C(F)(F)F)cnn12 (centres unmarked) [III-45] |  |  |  |  | Percent Gcase Activation, 0.1 μM Test Compound (0.1 μM test compound, Table 3A): *** (greater than 20% Gcase activation); Percent Gcase Activation, 1 μM Test Compound (1 μM test compound, Table 3A): +++ (Gcase activation greater than 60%) |
| Cc1cc(NC2CC2)nc2c(C(=O)NC(C3CC3)C3CC3)cnn12 [III-78] |  |  |  |  | Percent Gcase Activation, 0.1 μM Test Compound (0.1 μM test compound, Table 3A): *** (greater than 20% Gcase activation); Percent Gcase Activation, 1 μM Test Compound (1 μM test compound, Table 3A): +++ (Gcase activation greater than 60%) |
| Cc1cc(-c2ccc3scnc3c2)nc2c(C(=O)N[C@H](C)C3CC3)cnn12 [III-193] |  |  | *** (greater than 20% Gcase activation) | +++ (Gcase activation greater than 60%) |  |
| Cc1cc(-c2cccnc2)n2ncc(C(=O)NC(C)(C)C3CC3)c2n1 [III-19] |  |  |  |  | Percent Gcase Activation, 0.1 μM Test Compound (0.1 μM test compound, Table 3A): * (less than 10% Gcase activation); Percent Gcase Activation, 1 μM Test Compound (1 μM test compound, Table 3A): + (less than 30% Gcase activation) |
| COc1ccc(F)c(-c2cc(C)n3ncc(C(=O)NC(C)C(F)(F)F)c3n2)c1 (centres unmarked) [III-409] | *** (greater than 20% Gcase activation) | +++ (Gcase activation greater than 60%) |  |  |  |
| Cc1cc(-c2ccc3c(c2)ncn3C)nc2c(C(=O)NC(C3CC3)C(F)(F)F)cnn12 (centres unmarked) [III-303] | ** (Gcase activation in the range of 10% up to 20%) | + (less than 30% Gcase activation) |  |  |  |
| Cc1cc(-c2ccc(F)nc2)nc2c(C(=O)NC(C3CC3)C(F)(F)F)cnn12 (centres unmarked) [III-112] |  |  | *** (greater than 20% Gcase activation) | +++ (Gcase activation greater than 60%) |  |
| CCc1cc(-c2ccccn2)n2ncc(C(=O)NC(C)C(F)(F)F)c2n1 (centres unmarked) [III-51] |  |  |  |  | Percent Gcase Activation, 0.1 μM Test Compound (0.1 μM test compound, Table 3A): * (less than 10% Gcase activation); Percent Gcase Activation, 1 μM Test Compound (1 μM test compound, Table 3A): + (less than 30% Gcase activation) |
| Cc1cc(N2CC(C(C)C)OC2=O)nc2c(C(=O)NC(c3ccccc3)C(F)(F)F)cnn12 (centres unmarked) [III-313] | *** (greater than 20% Gcase activation) | +++ (Gcase activation greater than 60%) |  |  |  |
| Cc1cc(NC2CC2)nc2c(C(=O)NC(C3CC3)C(F)(F)F)cnn12 (centres unmarked) [III-44] |  |  |  |  | Percent Gcase Activation, 0.1 μM Test Compound (0.1 μM test compound, Table 3A): *** (greater than 20% Gcase activation); Percent Gcase Activation, 1 μM Test Compound (1 μM test compound, Table 3A): +++ (Gcase activation greater than 60%) |
| COc1cncc(-c2cc(C)n3ncc(C(=O)NC(C)C(F)(F)F)c3n2)c1 (centres unmarked) [III-270] |  |  | ** (Gcase activation in the range of 10% up to 20%) | +++ (Gcase activation greater than 60%) |  |
| Cc1cc(-c2cccnc2C#N)nc2c(C(=O)N[C@H](C3CC3)C(F)(F)F)cnn12 [III-365] | ** (Gcase activation in the range of 10% up to 20%) | +++ (Gcase activation greater than 60%) |  |  |  |
| Cc1cc(N2CC(C(C)C)OC2=O)nc2c(C(=O)N[C@@H](C3CC3)C(F)(F)F)cnn12 (some centres unmarked) [III-318] | ** (Gcase activation in the range of 10% up to 20%) | +++ (Gcase activation greater than 60%) |  |  |  |
| Cc1nc2cc(-c3cc(C)n4ncc(C(=O)N[C@@H](C)C5CC5)c4n3)ccc2o1 [III-321] | *** (greater than 20% Gcase activation) | +++ (Gcase activation greater than 60%) |  |  |  |
| Cc1nscc1-c1cc(C)n2ncc(C(=O)N[C@H](C3CC3)C(F)(F)F)c2n1 [III-389] | *** (greater than 20% Gcase activation) | +++ (Gcase activation greater than 60%) |  |  |  |
| Cc1ncc(-c2cc(C)n3ncc(C(=O)NC(C)(C)C4CC4)c3n2)o1 [III-252] |  |  | * (less than 10% Gcase activation) | +++ (Gcase activation greater than 60%) |  |

| SMILES | Percent Gcase Activation, 0.1 μM Test Compound (0.1 μM test compound) | Percent Gcase Activation, 1 μM Test Compound (1 μM test compound) | Percent Gcase Activation, 0.1 μM Test Compound (test compound at 0.1 μM) | Percent Gcase Activation, 1 μM Test Compound (test compound at 1.0 μM) | further results |
| --- | --- | --- | --- | --- | --- |
| Cc1cc(-c2cccnc2)nc2c(C(=O)NC(C)C(F)(F)F)cnn12 (centres unmarked) [III-43] |  |  |  |  | Percent Gcase Activation, 0.1 μM Test Compound (0.1 μM test compound, Table 3A): * (less than 10% Gcase activation); Percent Gcase Activation, 1 μM Test Compound (1 μM test compound, Table 3A): ++ (Gcase activation in the range of 30% up to 60%) |
| CCc1cc(N2CCN(C(C)C)C2=O)nc2c(C(=O)NC(C)(C)C)cnn12 [III-229] |  |  | * (less than 10% Gcase activation) | ++ (Gcase activation in the range of 30% up to 60%) |  |
| Cc1cc(-c2ccc(F)cc2C#N)nc2c(C(=O)NC(C)C(F)(F)F)cnn12 (centres unmarked) [III-154] |  |  | *** (greater than 20% Gcase activation) | +++ (Gcase activation greater than 60%) |  |
| Cc1ncc(-c2cc(C)n3ncc(C(=O)N[C@H](C4CC4)C(F)(F)F)c3n2)o1 [III-247] |  |  | *** (greater than 20% Gcase activation) | +++ (Gcase activation greater than 60%) |  |
| Cc1cc(-c2sccc2C#N)nc2c(C(=O)N[C@H](C)C3CC3)cnn12 [III-302] | *** (greater than 20% Gcase activation) | +++ (Gcase activation greater than 60%) |  |  |  |
| Cc1cc(-n2ccc(Cl)n2)nc2c(C(=O)NC(C)C(F)(F)F)cnn12 (centres unmarked) [III-170] |  |  | ** (Gcase activation in the range of 10% up to 20%) | ++ (Gcase activation in the range of 30% up to 60%) |  |
| Cc1cc(-c2cc(C)n3ncc(C(=O)N[C@H](C4CC4)C(F)(F)F)c3n2)no1 [III-341] | *** (greater than 20% Gcase activation) | +++ (Gcase activation greater than 60%) |  |  |  |
| Cc1cc(-c2cccc(Cl)c2)nc2c(C(=O)NC(C)(C)C(F)(F)F)cnn12 [III-406] | *** (greater than 20% Gcase activation) | +++ (Gcase activation greater than 60%) |  |  |  |
| Cc1cc(-c2sccc2C#N)nc2c(C(=O)NC(C3CC3)C(F)(F)F)cnn12 (centres unmarked) [III-189] |  |  | *** (greater than 20% Gcase activation) | +++ (Gcase activation greater than 60%) |  |
| Cc1cc(-c2cnccc2C(F)(F)F)nc2c(C(=O)N[C@H](C3CC3)C(F)(F)F)cnn12 [III-353] | *** (greater than 20% Gcase activation) | +++ (Gcase activation greater than 60%) |  |  |  |
| Cc1nc(-c2cc(C)n3ncc(C(=O)NC(C)(C)C4CC4)c3n2)co1 [III-251] |  |  | ** (Gcase activation in the range of 10% up to 20%) | +++ (Gcase activation greater than 60%) |  |
| Cc1ncc(-c2cc(C)n3ncc(C(=O)N[C@@H](C4CC4)C(F)(F)F)c3n2)o1 [III-248] |  |  | *** (greater than 20% Gcase activation) | +++ (Gcase activation greater than 60%) |  |
| Cc1cc(-n2ccc(F)n2)nc2c(C(=O)N[C@@H](C3CC3)C(F)(F)F)cnn12 [III-174] |  |  | *** (greater than 20% Gcase activation) | +++ (Gcase activation greater than 60%) |  |
| Cc1cc(-c2ccc(C(F)(F)F)nc2)nc2c(C(=O)NC(C)C(F)(F)F)cnn12 (centres unmarked) [III-288] | ** (Gcase activation in the range of 10% up to 20%) | +++ (Gcase activation greater than 60%) |  |  |  |
| Cc1cc(N2CCCN(C(C)C)C2=O)nc2c(C(=O)NC(C)C(F)(F)F)cnn12 (centres unmarked) [III-259] |  |  | * (less than 10% Gcase activation) | + (less than 30% Gcase activation) |  |
| Cc1cc(N2CCN(C(C)C)C2=O)nc2c(C(=O)NC(C)(C)C(F)(F)F)cnn12 [III-231] |  |  | * (less than 10% Gcase activation) | ++ (Gcase activation in the range of 30% up to 60%) |  |
| Cc1cc(-c2cccnc2)nc2c(C(=O)NC(C)(C)C3CC3)cnn12 [III-18] |  |  |  |  | Percent Gcase Activation, 0.1 μM Test Compound (0.1 μM test compound, Table 3A): ** (Gcase activation in the range of 10% up to 20%); Percent Gcase Activation, 1 μM Test Compound (1 μM test compound, Table 3A): +++ (Gcase activation greater than 60%) |
